Reference: US7943551B2, “3-cyclopropyl-4-(3-thiobenzoyl) pyrazoles and their use as herbicides” (Bayer Cropscience AG, priority 2007, dated 2011)

Legend:
Type in all cases: in vivo
Alopecurus myosuroides = assay: Post-emergence herbicidal action; settings: 80 g of a.i./ha
Description: (§1) Seeds of mono- and dicotyledonous harmful plants are placed in sandy loam in cardboard pots, covered with soil and grown in the greenhouse under good growth conditions. Two to three weeks after sowing, the test plants are treated at the three-leaf stage. The compounds according to the invention, which are formulated as wettable powders or as emulsion concentrates, are sprayed at an application rate of 600 to 800 l of water/ha (converted) in a dosage of 80 grams per hectare onto the surface of the green plant parts. The visual scoring of the damage to the harmful plants is carried out 3-4 weeks after the treatment. Here, the compounds of Nos. 1-39, 1-40, 1-1382 and 1-2091 show an activity of at least 90% against Echinochloa crus galli. The compounds of Nos. 1-3, 1-44 and 1-2091 shown an activity of at least 90% against Abutilon theophrasti. The compounds of Nos. 1-39, 1-40 and 1-1382 show an activity of at least 90% against Veronica persica. The compounds of Nos. 1-3, 1-38, 1-39, 1-1406 and 1-1407 show an activity of at least 90% against Stellaria media.
(§2) The comparative tests of Tables 1 to 24 below show the superiority of the compounds according to the invention over the compounds known from the prior art.
(§3) • ABUTH Abutilon theophrasti ALOMY Alopecurus myosuroides • AMARE Amaranthus retroflexus AVEFA Avena fatua • CHEAL Chenopodium album ECHCG Echinochloa crus galli • GALAP Galium aparine LOLMU Lolium multiflorum • MATIN Matricaria inodora PHBPU Pharbitis purpureum • POLCO Fallopia convolvulus STEME Stellaria media • VERPE Veronica persica VIOTR Viola tricolor • XANST Xanthium strumarium Crop Plants • GLXMA Glycine max (soybeans) TRZAS Triticum aestivum (wheat) • ZEAMX Zea mays (corn)

Avena fatua = assay: Post-emergence herbicidal action; settings: 80 g of a.i./ha
Description: as §1, §2, §3

Echinochloa crus galli = assay: Post-emergence herbicidal action; settings: 80 g of a.i./ha, visual scoring 3-4 weeks after treatment, read-out: Herbicidal activity in % against ECHCG
Description: as §1, §2, §3

Lolium multiflorum = assay: Post-emergence herbicidal action; settings: 80 g of a.i./ha
Description: as §1, §2, §3

Abutilon theophrasti = assay: Post-emergence herbicidal action; settings: Abutilon theophrasti, 80 g of a.i./ha, visual scoring 3-4 weeks after treatment, read-out: Herbicidal activity in % against ABUTH
Description: as §1, with “The compounds according to the invention, which are formulated as wettable powders or as emulsion concentrates, are sprayed at an application rate of 600 to 800 l of water/ha (converted) in a dosage of 80 grams per hectare onto the surface of the green plant parts.” left out
as §2, §3

Veronica persica = assay: Post-emergence herbicidal action; settings: 20 g of a.i./ha, read-out: Herbicidal activity in % against VERPE
Description: as §1, §2, §3

Viola tricolor = assay: Post-emergence herbicidal action; settings: 20 g of a.i./ha, read-out: Herbicidal activity in % against VIOTR
Description: as §1, §2, §3

Galium aparine [1] = assay: Post-emergence herbicidal action; settings: 20 g of a.i./ha
Description: as §1, with “The compounds according to the invention, which are formulated as wettable powders or as emulsion concentrates, are sprayed at an application rate of 600 to 800 l of water/ha (converted) in a dosage of 80 grams per hectare onto the surface of the green plant parts.” left out
as §2, §3

[2] = tested on: Triticum aestivum (wheat); assay: Post-emergence damage of crop plants; settings: 20 g of a.i./ha, crop plant wheat
Description: as §1, with “The compounds according to the invention, which are formulated as wettable powders or as emulsion concentrates, are sprayed at an application rate of 600 to 800 l of water/ha (converted) in a dosage of 80 grams per hectare onto the surface of the green plant parts.” left out
as §2, §3

Zea mays (corn) = assay: Post-emergence damage of crop plants; settings: 20 g of a.i./ha, crop plant corn
Description: as §1, with “The compounds according to the invention, which are formulated as wettable powders or as emulsion concentrates, are sprayed at an application rate of 600 to 800 l of water/ha (converted) in a dosage of 80 grams per hectare onto the surface of the green plant parts.” left out
as §2, §3

Chenopodium album = assay: Pre-emergence herbicidal action; settings: 320 g of a.i./ha
Text: (§4) Seeds or rhizome pieces of mono- and dicotyledonous harmful plants are placed in sandy loam in pots of a diameter of 9 to 13 cm and covered with soil. The herbicides, formulated as emulsifiable concentrates or dusts, are applied to the surface of the covering soil in the form of aqueous dispersions or suspensions or emulsions at an application rate of 300 to 800 l of water/ha (converted), at a dosage of 320 grams per hectare. For further cultivation of the plants, the pots are then kept in a greenhouse under optimum conditions. The visual scoring of the damage to the harmful plants is carried out 3-4 weeks after the treatment. Here, the compounds of Nos. 1-3, 1-15, 1-44 and 1-1407 show an activity of at least 90% against Echinochloa crus galli. The compounds of Nos. 1-15, 1-45, 1-1407 and 1-1419 show an activity of at least 90% against Abutilon theophrasti. The compounds of Nos. 1-3, 1-45, 1-1406 and 1-1418 show an activity of at least 90% against Amaranthus retroflexus. The compounds of Nos. 1-44, 1-1406, 1-1407 and 1-1419 show an activity of at least 90% against Stellaria media.
as §2, §3

Galium aparine [3] = assay: Pre-emergence herbicidal action; settings: 320 g of a.i./ha
Text: as §4, §2, §3

Glycine max (soybeans) = assay: Pre-emergence damage of crop plants; settings: 320 g of a.i./ha, crop plant soybeans
Text: as §4, §2, §3

[4] = tested on: Triticum aestivum (wheat); assay: Pre-emergence damage of crop plants; settings: 320 g of a.i./ha, crop plant wheat
Text: as §4, §2, §3

| Compound | Herbicidal activity in % against ALOMY (Alopecurus myosuroides) [%] | Herbicidal activity in % against AVEFA (Avena fatua) [%] | pest or weed control at 80 g/ha (Echinochloa crus galli) [%] | Herbicidal activity in % against LOLMU (Lolium multiflorum) [%] | pest or weed control at 80 g/ha (Abutilon theophrasti) [%] | pest or weed control at 20 g/ha (Veronica persica) [%] | pest or weed control at 20 g/ha (Viola tricolor) [%] | Herbicidal activity in % against GALAP (Galium aparine [1]) [%] | Damage to TRZAS [2] | Damage to ZEAMX (Zea mays (corn)) | Herbicidal activity in % CHEAL (Chenopodium album) [%] | Herbicidal activity in % GALAP (Galium aparine [3]) [%] | Damage to GLXMA (Glycine max (soybeans)) | Damage to TRZAS [4] |
| --- | --- | --- | --- | --- | --- | --- | --- | --- | --- | --- | --- | --- | --- | --- |
| Cn1nc(C2CC2)c(C(=O)c2ccc(Cl)c(S(=O)(=O)CC3CC3)c2Cl)c1O [drawing 55] | 70 | 50 | 90 | 60 | 70 | – | – | – | – | – | – | – | – | – |
| CCS(=O)(=O)c1c(S(C)(=O)=O)ccc(C(=O)c2c(C3CC3)nn(C)c2O)c1C [drawing 36, reference compound] | – | – | – | – | – | 20 | 20 | 20 | 80 | 10 | – | – | – | – |
| Cn1nc(C2CC2)c(C(=O)c2ccc(Cl)c(S(C)(=O)=O)c2Cl)c1O [drawing 56, reference compound] | 20 | 20 | 30 | 20 | 60 | – | – | – | – | – | – | – | – | – |
| CCS(=O)(=O)c1c(S(C)(=O)=O)ccc(C(=O)c2c(C3CC3)nn(C)c2O)c1C [drawing 38, reference compound] | – | – | – | – | – | – | – | – | – | – | 90 | 90 | 50 | 50 |
| Cc1c(C(=O)c2c(C3CC3)nn(C)c2O)ccc(S(C)(=O)=O)c1S(=O)(=O)CC1CC1 [drawing 37] | – | – | – | – | – | – | – | – | – | – | 100 | 100 | 0 | 0 |
| COCCS(=O)(=O)c1c(S(C)(=O)=O)ccc(C(=O)c2c(C3CC3)nn(C)c2O)c1C [drawing 35] | – | – | – | – | – | 90 | 70 | 50 | 0 | 0 | – | – | – | – |
